Assay results published in publication PMC2810552 (Journal of medicinal chemistry, 2009).
Where two headings read alike, the source gives them in different places.

How the values were obtained:
[1] = molecular target: T1, Gal4DBD-GRLBD-VP16 fusion protein in HeLa cells (Homo sapiens, UniProt P04150); format: cell-based; settings: for Luc activity induced (in words): up to 6 µM
T1 sequence (P04150 524-758 limits assumed): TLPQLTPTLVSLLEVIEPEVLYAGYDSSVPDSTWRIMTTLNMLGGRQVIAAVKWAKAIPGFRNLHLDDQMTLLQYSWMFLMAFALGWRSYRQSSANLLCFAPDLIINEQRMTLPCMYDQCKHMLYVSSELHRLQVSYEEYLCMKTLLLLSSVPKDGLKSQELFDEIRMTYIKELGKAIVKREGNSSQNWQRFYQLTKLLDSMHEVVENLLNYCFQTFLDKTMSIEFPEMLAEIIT

[2] = Solubility limit observed in the Luc assay; format: physicochemical; settings: cell-based Luc induction (reporter) assay in HeLa cells
[3] = molecular target: T2, breast cancer cell line MCF7 (Homo sapiens, UniProt P04150); test: Cell-based functional permeability assay: luciferase reporter in MCF7 cells
T2 sequence (P04150 524-758 limits assumed): T1 sequence (P04150 524-758 limits assumed)

[4] = molecular target: T1, Gal4DBD-GRLBD-VP16 fusion protein in HeLa cells; settings: cited from earlier work

## CC(=O)NCCCN(C)CCCNC(=S)NCCSCC(=O)[C@@]1(O)[C@H](C)C[C@H]2[C@@H]3CCC4=CC(=O)C=C[C@]4(C)[C@@]3(F)[C@@H](O)C[C@@]21C [Ac-Da-Sdex (28), Ac-Da-Sdex]
[1]
  concentration at which maximum Luc induction was achieved: 6 µM
  maximum Luc induction: 3,000 fold

## C[C@H]1C[C@@H]2[C@H]3CCC4=CC(=O)C=C[C@@]4(C)[C@]3(F)[C@H](O)C[C@@]2(C)[C@]1(O)C(=O)NCCNC(=O)c1cc(NC(=O)c2cc(NC(=O)c3cc(NC(=O)c4cc(NC(=O)CCCNC(=O)c5cc(NC(=O)c6cc(NC(=O)c7cc(NC(=O)c8nccn8C)cn7C)cn6C)cn5C)cn4C)cn3C)cn2C)cn1C [ImPy7γ-Et-Oxdex (24), ImPy7γ-Et-Oxdex]
[1]
  Luc induction at 10 µM, times lower than that of ImPy2-Et-Oxdex: 4 times
  Luc induction at 10 µM, times lower than that of ImPy-Et-Oxdex: 7 times
[2]
  solubility: ≤ 10 µM

## C[C@H]1C[C@@H]2[C@H]3CCC4=CC(=O)C=C[C@@]4(C)[C@]3(F)[C@H](O)C[C@@]2(C)[C@]1(O)C(=O)CSCCNC(=S)NCCNC(=O)c1cc(NC(=O)c2cc(NC(=O)c3cc(NC(=O)c4cc(NC(=O)CCCNC(=O)c5nccn5C)cn4C)cn3C)cn2C)cn1C [ImPy4γ-Et-Sdex (19), ImPy4γ-Et-Sdex]
[1]
  Luc activity induced (in words): lowest Luc activity among all Sdex conjugates

## C[C@H]1C[C@@H]2[C@H]3CCC4=CC(=O)C=C[C@@]4(C)[C@]3(F)[C@H](O)C[C@@]2(C)[C@]1(O)C(=O)CSCCNC(=S)NCCNC(=O)c1cc(NC(=O)c2cc(NC(=O)c3nccn3C)cn2C)cn1C [ImPy2-Et-Sdex (22), ImPy2-Et-Sdex]
[1]
  concentration at which maximum Luc induction was achieved: 6 µM

## C[C@H]1C[C@@H]2[C@H]3CCC4=CC(=O)C=C[C@@]4(C)[C@]3(F)[C@H](O)C[C@@]2(C)[C@]1(O)C(=O)CSCCNC(=S)NCCNC(=O)c1cc(NC(=O)c2cncn2C)cn1C [ImPy-Et-Sdex (23), ImPy-Et-Sdex]
[1]
  maximum Luc induction: 3700 fold
[3]
  EC50: 940 nM

## C[C@H]1C[C@@H]2[C@H]3CCC4=CC(=O)C=C[C@@]4(C)[C@]3(F)[C@H](O)C[C@@]2(C)[C@]1(O)C(=O)CSCCNC(=S)NCCNC(=O)c1cc(NC(=O)c2cc(NC(=O)c3cc(NC(=O)c4cc(NC(=O)CCCNC(=O)c5cc(NC(=O)c6nccn6C)cn5C)cn4C)cn3C)cn2C)cn1C [ImPy5γ-Et-Sdex (18), ImPy5γ-Et-Sdex]
[1]
  Luc activity induced (in words): higher levels compared to ImPy4γ-Et-Sdex (19)

## C[C@@H]1C[C@H]2[C@@H]3CCC4=CC(=O)C=C[C@]4(C)[C@@]3(F)[C@@H](O)C[C@]2(C)[C@@]1(O)C(N)=O [Oxdex-CONH2 (4), Oxdex-CONH2, reference compound]
[4]; read-out: EC50 of Luc induction, HeLa cells
  EC50: 35 ± 3 µM

## CC(=O)NCCNC(=S)NCCSCC(=O)[C@@]1(O)[C@H](C)C[C@H]2[C@@H]3CCC4=CC(=O)C=C[C@]4(C)[C@@]3(F)[C@@H](O)C[C@@]21C [Ac-Et-Sdex (15), Ac-Et-Sdex]
[1]
  concentration at which maximum Luc induction was achieved: 0.6 µM
[3]
  EC50: 250 nM
[3]; MCF7 cells
  concentration at which maximum Luc induction was achieved: 1 µM
  maximum Luc induction: 1,200 fold

## C[C@H]1C[C@@H]2[C@H]3CCC4=CC(=O)C=C[C@@]4(C)[C@]3(F)[C@H](O)C[C@@]2(C)[C@]1(O)C(=O)CSCCNC(=S)NCCNC(=O)c1cc(NC(=O)c2cc(NC(=O)c3cc(NC(=O)c4nccn4C)cn3C)cn2C)cn1C [ImPy3-Et-Sdex (21), ImPy3-Et-Sdex]
[1]
  Luc activity induced (in words): did not achieve the maximum induction at 6 µM

## C[C@H]1C[C@@H]2[C@H]3CCC4=CC(=O)C=C[C@@]4(C)[C@]3(F)[C@H](O)C[C@@]2(C)[C@]1(O)C(=O)CSCCNC(=S)NCCNC(=O)c1cc(NC(=O)c2cc(NC(=O)c3cc(NC(=O)c4cc(NC(=O)CCCNC(=O)c5cc(NC(=O)c6cc(NC(=O)c7nccn7C)cn6C)cn5C)cn4C)cn3C)cn2C)cn1C [ImPy6γ-Et-Sdex (17), ImPy6γ-Et-Sdex]
[1]
  Luc activity induced (in words): higher levels compared to ImPy4γ-Et-Sdex (19)

## C[C@H]1C[C@@H]2[C@H]3CCC4=CC(=O)C=C[C@@]4(C)[C@]3(F)[C@H](O)C[C@@]2(C)[C@]1(O)C(=O)NCCNC(=O)c1cc(NC(=O)c2nccn2C)cn1C [ImPy-Et-Oxdex (27), ImPy-Et-Oxdex]
[1]
  concentration at which maximum Luc induction was achieved: ~20 µM

## C[C@H]1C[C@@H]2[C@H]3CCC4=CC(=O)C=C[C@@]4(C)[C@]3(F)[C@H](O)C[C@@]2(C)[C@]1(O)C(=O)NCCNC(=O)c1cc(NC(=O)c2cc(NC(=O)c3cc(NC(=O)c4nccn4C)cn3C)cn2C)cn1C [ImPy3-Et-Oxdex (25), ImPy3-Et-Oxdex]
[1]
  Luc induction at 10 µM, times lower than that of ImPy2-Et-Oxdex: 4 times
  Luc induction at 10 µM, times lower than that of ImPy-Et-Oxdex: 7 times
[2]
  solubility: ≤ 10 µM

## C[C@H]1C[C@@H]2[C@H]3CCC4=CC(=O)C=C[C@@]4(C)[C@]3(F)[C@H](O)C[C@@]2(C)[C@]1(O)C(=O)CSCCNC(=S)NCCNC(=O)c1cc(NC(=O)c2cc(NC(=O)c3cc(NC(=O)c4cc(NC(=O)CCCNC(=O)c5cc(NC(=O)c6cc(NC(=O)c7cc(NC(=O)c8nccn8C)cn7C)cn6C)cn5C)cn4C)cn3C)cn2C)cn1C [ImPy7γ-Et-Sdex (16), ImPy7γ-Et-Sdex]
[1]; 6 µM
  Luc activity induction at 6 µM: 1,500 fold
[1]
  Luc activity induced (in words): higher levels compared to ImPy4γ-Et-Sdex (19)
[3]; MCF7 cells
  Luc activity / cellular uptake (in words): modest improvement of cellular uptake

## C[C@H]1C[C@@H]2[C@H]3CCC4=CC(=O)C=C[C@@]4(C)[C@]3(F)[C@H](O)C[C@@]2(C)[C@]1(O)C(=O)CSCCNC(=S)NCCNC(=O)c1cc(NC(=O)c2cc(NC(=O)c3cc(NC(=O)c4cc(NC(=O)c5nccn5C)cn4C)cn3C)cn2C)cn1C [ImPy4-Et-Sdex (20), ImPy4-Et-Sdex]
[1]
  Luc activity induced (in words): did not achieve the maximum induction at 6 µM

## C[C@@H]1C[C@H]2[C@@H]3CCC4=CC(=O)C=C[C@]4(C)[C@@]3(F)[C@@H](O)C[C@]2(C)[C@@]1(O)C(=O)CSCCNC(=S)NCCCN(C)CCCNC(=O)CCNC(=O)c1cc(NC(=O)c2cc(NC(=O)c3cc(NC(=O)c4cc(NC(=O)CCCNC(=O)c5cc(NC(=O)c6cc(NC(=O)c7cc(NC(=O)c8nccn8C)cn7C)cn6C)cn5C)cn4C)cn3C)cn2C)cn1C [ImPy7γ-βDa-Sdex (6), ImPy7γ-βDa-Sdex]
[4]; cell-based functional assay
  Luc activity induced (in words): modest Luc activity
